Measured values reported in paper PMC7904790 (Nature Communications, 2021).
Like-named read-outs stand apart in the source and are kept apart here. Each block holds one molecule with its values, some of them ahead of it.

What was measured:
EML4-ALK WT = system: T1, EML4-ALK WT; assay: cells; design: CellTiter-Glo viability of Ba/F3 cells dependent on EML4-ALK, without IL-3; conditions: Ba/F3 EML4-ALK, 72 h
T1 construct: EML4-ALK fusion, wild-type kinase domain, expressed in Ba/F3 cells
Protocol: To identify drugs that can overcome these mutations, we screened our focused 90-inhibitor library using Ba/F3 cells expressing EML4-ALK I1171N + F1174I and I1171N + L1198H. At a concentration of 50 nM, gilteritinib suppressed the viability of both wild-type (WT) and compound mutant Ba/F3 cells (Fig. 1a). Since gilteritinib has reported as multi-kinase inhibitor, we first evaluated whether the ALK inhibitory efficacy of gilteritinib is driven by on-target activity or not. As a result of western blot analysis, gilteritinib suppressed the autophosphorylation of ALK in EML4-ALK-expressing Ba/F3 cells (Fig. 1b and Supplementary Fig. 1). […] As well as Ba/F3 cell model, we verified the activity of gilteritinib to H3122 cell line that is EML4-ALK-positive NSCLC cells. […] Then, the inhibitory concentration of gilteritinib is matched between ALK phosphorylation and its downstream signals. […] Further, using the phosphoproteomics data, kinase substrate-enrichment analysis (KSEA) predicted activate kinase candidates as potential gilteritinib targets and identified ALK as the most likely regulated protein (Fig. 1e, Supplementary Figs. 3 and 4, and Supplementary Table 2). To establish Ba/F3 cells expression WT or mutant EML4-ALK, TPM3-NTRK1, and CD74-ROS1 fusion proteins, pLenti6.3 vectors containing the cDNA of these fusion oncogenes were transfected into 293FT cells using packaging plasmids (ViraPower) for lentivirus production. Ba/F3 cells were infected using lentivirus-containing medium supplemented with polybrene (8 μg/ml), and after 24 h of incubation, the infected cells were selected using 7 μg/ml blasticidin (Invitrogen) for 1 week. After selection, each EML4-ALK-, TPM3-NTRK1-, and CD74-ROS1-expressing cell line was cultured in D-10 without IL-3. […] To stablise H3122, JFCR-028-3, MCC-003 cells expression WT or mutant EML4-ALK, KRAS G12C, cells were infected using lentivirus-containing medium supplemented with polybrene (8 μg/ml). After 24 h of incubation, the infected cells were selected using 7 μg/ml blasticidin for H3122, JFCR028-3, and 10 μg/ml for MCC-003, respectively. To stablise H3122 cells expression AXL, pHAGE-AXL vector (purchased from addgene) was transfected into 293FT cells using packaging plasmids for lentivirus production. H3122 cells were infected using lentivirus-containing medium supplemented with polybrene (8 μg/ml), and after 24 h of incubation, EGFP-positive cells were sorted using FACSMelody (BD Bioscience, San Jose, CA, USA). To stablise NIH3T3 oncogene-expressing cells, cells were infected using lentivirus-containing medium supplemented with polybrene (8 μg/ml), and after 24 h of incubation, the infected cells were selected using 2 μg/ml blasticidin for 1 week.

in vitro = assay: in vitro; design: CellTiter-Glo viability of parental Ba/F3 cells with IL-3 (counter-screen); conditions: mouse, parental ba/f3 cells +il-3; with IL-3; read-out: IC50 parental Ba/F3 (+IL-3)
Protocol: To identify drugs that can overcome these mutations, we screened our focused 90-inhibitor library using Ba/F3 cells expressing EML4-ALK I1171N + F1174I and I1171N + L1198H. At a concentration of 50 nM, gilteritinib suppressed the viability of both wild-type (WT) and compound mutant Ba/F3 cells (Fig. 1a). Since gilteritinib has reported as multi-kinase inhibitor, we first evaluated whether the ALK inhibitory efficacy of gilteritinib is driven by on-target activity or not. As a result of western blot analysis, gilteritinib suppressed the autophosphorylation of ALK in EML4-ALK-expressing Ba/F3 cells (Fig. 1b and Supplementary Fig. 1). […] As well as Ba/F3 cell model, we verified the activity of gilteritinib to H3122 cell line that is EML4-ALK-positive NSCLC cells. […] Then, the inhibitory concentration of gilteritinib is matched between ALK phosphorylation and its downstream signals. […] Further, using the phosphoproteomics data, kinase substrate-enrichment analysis (KSEA) predicted activate kinase candidates as potential gilteritinib targets and identified ALK as the most likely regulated protein (Fig. 1e, Supplementary Figs. 3 and 4, and Supplementary Table 2).  Fig. 1 Identification of gilteritinib as an inhibitor of ALK-rearranged cancer cells. a Relative cell viability of parental (with IL-3), EML4-ALK wild-type (WT), EML4-ALK I1171N + F1174I, and EML4-ALK I1171N + L1198H Ba/F3 cells treated with 50 nM of the indicated inhibitors. Cell viability was analyzed using the CellTiter-Glo assay and calculated relative to the viability of dimethyl sulfoxide-treated Ba/F3 cells. b The suppression of phospho-ALK in I1171N + F1174I, I1171N + L1198H mutation-expressing Ba/F3 cells was evaluated using western blotting. Cells were treated with the indicated concentrations of gilteritinib for 3 h (n = 2). c The suppression of phospho-ALK and its downstream signals in H3122 parental cells and I1171N + F1174I compound mutation-expressing cells were evaluated using western blotting. […] N = 3 independent samples examined over three independent experiments and representative experiment data are presented as mean values ± SD. e Volcano plot displaying the −log10 (p-value) versus log2 (gilteritinib treatment/DMSO treatment) for all quantified phosphopeptides. The red diamond indicates phospho-ALK.

H2228 = assay: cells; design: CellTiter-Glo viability of fusion-positive human cancer cell lines; conditions: Homo sapiens, NCI-H2228, 72 h
KARPAS299 = assay: cells; design: CellTiter-Glo viability of fusion-positive human cancer cell lines; conditions: Homo sapiens, KARPAS-299, 72 h
JFCR-018-1 = assay: cells; design: CellTiter-Glo viability of fusion-positive human cancer cell lines; conditions: 72 h
MCC-003 = assay: cells; design: CellTiter-Glo viability of fusion-positive human cancer cell lines; conditions: 72 h
H3122 = assay: cells; design: CellTiter-Glo viability of fusion-positive human cancer cell lines; conditions: Homo sapiens, NCI-H3122, 72 h
JFCR-028-3 = assay: cells; design: CellTiter-Glo viability of fusion-positive human cancer cell lines; conditions: 72 h

IC50 (H2228; read-out: Crizotinib IC50): 28 ± 14 nM
IC50 (KARPAS299; read-out: Crizotinib IC50): 51 ± 5.3 nM
SMILES: C[C@@H](Oc1cc(-c2cnn(C3CCNCC3)c2)cnc1N)c1c(Cl)ccc(F)c1Cl [Crizotinib]
CC50 at 72 h (in vitro): 371 ± 50 nM
IC50 (JFCR-018-1; read-out: Crizotinib IC50): 136 ± 14 nM

IC50 (H2228; read-out: Brigatinib IC50): 3.5 ± 1 nM
IC50 (KARPAS299; read-out: Brigatinib IC50): 7.1 ± 2 nM
IC50 (H3122; read-out: Brigatinib IC50): 7.9 ± 3.7 nM
SMILES: COc1cc(N2CCC(N3CCN(C)CC3)CC2)ccc1Nc1ncc(Cl)c(Nc2ccccc2P(C)(C)=O)n1 [Brigatinib]
CC50 at 72 h (in vitro): 578 ± 113 nM
IC50 (MCC-003; read-out: Brigatinib IC50): 63 ± 11 nM
IC50 (JFCR-018-1; read-out: Brigatinib IC50): 7.7 ± 0.46 nM
IC50 (JFCR-028-3; read-out: Brigatinib IC50): 6.2 ± 1.5 nM

IC50 (H2228; read-out: Ceritinib IC50): 10 ± 3.6 nM
IC50 (KARPAS299; read-out: Ceritinib IC50): 16 ± 6.9 nM
IC50 (H3122; read-out: Ceritinib IC50): 15 ± 2.1 nM
SMILES: Cc1cc(Nc2ncc(Cl)c(Nc3ccccc3S(=O)(=O)C(C)C)n2)c(OC(C)C)cc1C1CCNCC1 [Ceritinib]
CC50 at 72 h (in vitro): 623 ± 33 nM
IC50 (MCC-003; read-out: Ceritinib IC50): 74 ± 22 nM
IC50 (JFCR-018-1; read-out: Ceritinib IC50): 30 ± 3 nM
IC50 (JFCR-028-3; read-out: Ceritinib IC50): 12 ± 3.3 nM

IC50 (H2228; read-out: Alectinib IC50): 3.8 ± 1.2 nM
IC50 (KARPAS299; read-out: Alectinib IC50): 43 ± 7.5 nM
SMILES: CCc1cc2c(cc1N1CCC(N3CCOCC3)CC1)C(C)(C)c1[nH]c3cc(C#N)ccc3c1C2=O [alectinib]
CC50 at 72 h (in vitro): 899 ± 12 nM
IC50 (MCC-003; read-out: Alectinib IC50): 765 ± 97 nM
